Assay results taken from US20210198284A1, “GOLD COMPOSITIONS AND METHODS OF USE THEREOF” (THE UNIVERSITY OF MASSACHUSETTS, priority 2018, published 2021).
Like-named read-outs stand apart in the source and are kept apart here.

How the values were obtained:
[1] = Log P determination (n-octanol/water, FAAS)
Protocol: Log P Determination: Calibration curves. Milli-Q Water (150 mL) was added to n-octanol (150 mL), and the mixture was stirred for 3 days to allow both phases to reach saturation. The gold standard solution (1000 ppm Au in hydrochloric acid, Fisher Scientific) was diluted to 1, 2, 3, 4 and 5 ppm with n-octanol-saturated water, and the absorbance of the resulting solutions was measured by flame atomic absorption spectroscopy (FAAS, Agilent Technology 200 Series AA, equipped with a gold HC Lamp-Au coded). The absorbance data were plotted against Au concentration, and the resulting calibration curve was used for determining the concentration of the analogs in the aqueous phase.
To construct the standard calibration curve of the Au concentration in the n-octanol phase, compound 27 was used. The Au concentration in compound 27 was first calibrated against the aqueous gold standard. For this, 0.440 mg of compound 27 was weighed on a Sartorius MC5 microbalance, and then added to 22 mL of n-octanol-saturated water. […] For this, solutions of varying concentrations (0.99, 2.47, 4.94, 5.93, 9.88 ppm) of compound 27 in water-saturated n-octanol were prepared. The absorbance was measured by FAAS, and the data were plotted against the Au concentration to provide a second calibration curve, which was used for determining the Au concentration of the analogs in the n-octanol phase.
Determination of Au concentrations: Method 1. 0.5 to 1 mg of compound was weighed into a 2-mL Eppendorf tube containing 2 mL of n-octanol-saturated water. After shaking for about 4 h, the solution was centrifuged at 6000 rpm for 3 min. 1 mL of the supernatant was transferred to a new tube containing 1 mL of water-saturated n-octanol, and the mixture was shaken for 1 h. After centrifugation at 6000 rpm for 5 min, the two layers were collected and the gold concentration in each layer was determined by FAAS by comparing the absorbance to the first and second calibration curves.
Determination of Au concentrations: Method 2. […] For Method 2, 0.6 to 1 mg of compound was weighed into a 2-mL Eppendorf tube containing 1 mL of n-octanol-saturated water and 1 mL of water-saturated n-octanol. After shaking for 3-4 h, the mixture was centrifuged, and all liquid was transferred to a 15-mL tube. The liquid was then diluted with 2 mL of n-octanol-saturated saturated water and 2 mL of water-saturated n-octanol, and the mixture was shaken for another hour. After centrifugation at 6000 rpm for 5 min, the two layers were collected and the gold concentration in each layer was determined by FAAS by comparing the absorbance to the first and second calibration curves.
Log P was calculated as follows: log P=log[compound]oct/[compound]water

[2] = system: C. neoformans ATCC 208821; assay: Antifungal MIC; format: cell-based; details: C. neoforman, strain not named
A. baumannii NCTC 13420 = assay: Antibacterial assay, MIC/MBC by broth microdilution (CLSI); format: cell-based; details: A. baumannii NCTC 13420; for MIC: repeated twice, a/b = both values
Protocol: (§1) Antibacterial assay. The minimum inhibitory concentrations (MICs) and the minimum bactericidal concentrations (MBCs) were determined by the broth microdilution method as described in the CLSI (The Clinical & Laboratory Standards Institute) guidelines (Performance standards for antimicrobial susceptibility testing: Clinical and Laboratory Standards Institute (CLSI), Twenty-Fifth informational supplement. Document M100-S25: […]; Vol. 35). All bacterial strains were cultured in cation-adjusted Muller Hinton broth (CAMHB) up to log-phase and then diluted to give a concentration of 7.5×10^5 CFU/mL. The gold complexes were dissolved in DMSO or water as stock solutions, which were then serially diluted two-fold in a 96-well plate. Aliquots (100 μL) of the dilutions were mixed with equal volumes of the bacterium suspension in a 96 well plate (in triplicates). The plates were incubated at 37° C. for 18 h without shaking. Negative and positive controls were included in the same well plate with wells having the culture medium only and bacteria solution only, respectively. The sample concentration that gave inhibition values above 90% were determined as MICs as calculated from absorbance values at 600 nm (OD600) obtained using a Tecan SPARK IOM plate reader. To determine minimum bactericidal concentrations (MBCs), agar plates were treated with 5 μL sample solutions from each well, and then incubated at 37° C. for 18 h without shaking. The sample concentration that gave no colony formed on agar plates were determined as MBCs.
(§2) Selection of bacteria. The ESKAPE pathogens were chosen as they are responsible for the majority of nosocomial infections and also as they provide a good scope of strains including both Gram-negative and Gram-positive species. A. baumannii NCTC 13420 was originally identified in 24 hospitals in the UK during 2000-2003, which produced OXA-51-like β-lactamases, and was highly resistant to ampicillin, piperacillin, piperacillin/tazobactam, ceftazidime, cefotaxime, gentamicin and ciprofloxacin. P. aeruginosa NCTC13437 produces VIM-10 metallo-carbapenemase and VEB-1 (Vietnamese extended-spectrum beta-lactamase). Wild-type strain E. cloacae NCTC 13405 (originally named E. cloacae 684) was isolated from patients at the London Hospital during 1982-1983. This strain has inducible AmpC β-lactamase and is resistant to ampicillin/amoxicillin and cefoxitin. K. pneumoniae ATCC 700603 was isolated from the urine of a hospitalized patient in Richmond, Va. in 1994, and it produces SHV-18 extended spectrum beta-lactamase (ESBL). JE2 (USA300) is a methicillin-resistant S. aureus (MRSA) strain, also resistant to beta-lactams, ciprofloxacin, tetracycline, macrolides (erythromycin), lincosamides (clindamycin), streptogramin B, and mupirocin. E. faecium ATCC 700221, a positive fecal VRE (vancomycin-resistant enterococcus) isolate, is resistant to several antibiotics including vancomycin and teicoplanin. The quality control strain, Gram-negative E. coli ATCC 25922, was included in all assays and validated with ciprofloxacin and […].

E. cloacae NCTC 13405 = assay: as above; format: cell-based; details: E. cloacae NCTC 13405; for MIC: repeated twice, a/b = both values
Protocol: as §1, §2

E. coli ATCC 25922 = assay: as above; format: cell-based; details: for MIC: repeated twice, a/b = both values
Protocol: as §1, §2

E. faecalis ATCC 700221 = assay: as above; format: cell-based; details: for MIC: repeated twice, a/b = both values
Protocol: as §1, §2

[3] = system: K. pneumoniae ATCC 700603; assay: as above; format: cell-based; details: for MBC (in brackets) / MIC: K. pneumoniae ATCC 700603; for MIC: repeated twice, a/b = both values
Protocol: as §1, §2

P. aeruginosa NCTC 13437 = assay: as above; format: cell-based; details: P. aeruginosa NCTC 13437; for MIC: repeated twice, a/b = both values
Protocol: as §1, §2

S. aureus JE2 (USA300) = assay: as above; format: cell-based; details: S. aureus JE2 (USA300); for MIC: repeated twice, a/b = both values
Protocol: as §1, §2

A549 cells = assay: Cytotoxicity assay (resazurin); format: cell-based; details: 20 h, mean±S.E.M. from two independent experiments
Protocol: Sample preparation. The compounds were dissolved in DMSO at 12.8 mg/mL as the stock solutions, except for compounds 9-17, which were directly dissolved in the culture medium at 12.8 mg/mL. The stock solutions were diluted by the culture medium to the testing concentration at 128 μg/mL (compound 9-17 were diluted to 1,280 μg/mL). The solutions were then serially diluted two fold in a 96-well plate and were used in the cytotoxicity assay immediately.
Cell culture and cytotoxicity assay. A549 cells (ATCC CCL-185) were cultured in high glucose DMEM (Sigma-Aldrich, D6429) supplemented with 10% FBS, 1% penicillin-streptomycin solution (Sigma-Aldrich, P4333), 1% gentamicin solution (Sigma-Aldrich, G1272) and 1% amphotericin B solution (Sigma-Aldrich, A2942) at 37° C. in a humidified atmosphere containing 5% CO2. After cells reached 80%˜90% confluency, they were detached and counted using an Invitrogen Countess automated cell counter. Cells with viability over 90% were seeded at a density of 5×10^3 cells per well in 96-well cell culture plates. After overnight culture, the culture medium in each well removed with a pipet. 80 μL of the compound solutions from each well of the 96-well plate prepared above were transferred to this 96-well plate containing the cells, and the plates were incubated for 20 h. After addition of 8 μL of 110 μg/mL resazurin, the plates were incubated for further 3 h at 37° C. in 5% CO2. The fluorescence intensity was measured using a Tecan M200 Infinite Pro microplate reader at excitation 560 nm, emission 590 nm. IC50 were calculated by curve fitting the inhibition values vs. log(concentration) using GraphPad's Prism. The cytotoxicity assays (in triplicate) were repeated twice using freshly prepared cells and compound solutions.

Molecule | MBC (in brackets) (A. baumannii NCTC 13420) | MIC (A. baumannii NCTC 13420) | MBC (in brackets) (E. cloacae NCTC 13405) | MIC (E. cloacae NCTC 13405) | MBC (in brackets) (E. coli ATCC 25922) | MIC (E. coli ATCC 25922) | MBC (in brackets) (E. faecalis ATCC 700221) | MIC (E. faecalis ATCC 700221) | MBC (in brackets) [3] | MIC [3] | MBC (in brackets) (P. aeruginosa NCTC 13437) | MIC (P. aeruginosa NCTC 13437) | MBC (in brackets) (S. aureus JE2 (USA300)) | IC50 against A549 cells (A549 cells) [µg/mL] | MIC (S. aureus JE2 (USA300)) | Log P ([1]; n-octanol/water, gold by FAAS) | also measured
CC[P+](CC)(CC)[Au-]1[SH](CC2O[C@H](O[C@H]3OC(COC(C)=O)[C@@H](OC(C)=O)C(OC(C)=O)[C@H]3OC(C)=O)C(OC(C)=O)[C@@H](OC(C)=O)[C@@H]2OC(C)=O)[Au]1[PH](CC)(CC)CC (some centres unmarked) [Compound 7] | – | – | – | – | – | – | – | – | – | – | – | – | – | – | – | – | logP [1]: -0.28; antifungal activity in words [2]: moderate antifungal activity
(4-Aminobenzenethiolato)(triethylphosphine) gold(I) [Compound 20] | 18 (18) μM/mL | 18 (18) μM/mL | 36 (36) μM/mL | 36 (36) μM/mL | 9 (9) μM/mL | 9 (9) μM/mL | (0.1) μM/mL | 0.02 μM/mL | 36 (36) μM/mL | 36 (36) μM/mL | 146 (146) μM/mL | 146 (146) μM/mL | 2 (0.07) μM/mL | 6.5 ± 1.1 | – | – | MIC or MIC/MBC, fold lower than auranofin ([3]; K. pneumoniae): 10 fold; MIC/MBC ([3]; K. pneumoniae): 36 µM; Log P [1]: 1.36
(Benzenethiolato)(triethylphosphine) gold(I) [Compound 18] | (>603) μM/mL | 19/75 | 603 μM/mL | 75 μM/mL | (151) μM/mL | 151 μM/mL | 1 μM/mL | 0.6 μM/mL | – | >603 μM/mL | 302 (302) μM/mL | 302 (302) μM/mL | (0.6) μM/mL | 4.3 ± 0.2 | 0.02 μM/mL | – | Log P [1]: 2.20
(Tri-n-butylphosphine) gold chloride [Compound 30] | (147) μM/mL | 74/147 | – | >589 μM/mL | – | >589 μM/mL | 5 (5) μM/mL | 5 (5) μM/mL | 147 (147) μM/mL | 147 (147) μM/mL | 74 (74) μM/mL | 74 (74) μM/mL | 4 μM/mL | 4.7 ± 0.0 | 2 μM/mL | >3.99 | –
(Triethylphosphine) gold chloride [Compound 29] | 23 μM/mL | 11/23 | 23 (23) μM/mL | 23 (23) μM/mL | 23 (23) μM/mL | 23 (23) μM/mL | (0.7) μM/mL | – | 46 (46) μM/mL | 46 (46) μM/mL | 183 μM/mL | 92 μM/mL | 02 (0.2) μM/mL | 9.5 ± 0.1 | – | 1.74 | –
(Tris(4-methoxyphenyl)phosphine) gold chloride [Compound 32] | – | >438 μM/mL | – | >438 μM/mL | – | >438 μM/mL | 3 (3) μM/mL | 3 (3) μM/mL | – | >438 μM/mL | – | >438 μM/mL | 3 μM/mL | 9.4 ± 1.7 | 2 μM/mL | >4.09 | –
(Tris(4-trifluoromethylphenyl)phosphine) gold chloride [Compound 34] | – | >366 μM/mL | – | >366 μM/mL | – | >366 μM/mL | – | >366 μM/mL | – | >366 μM/mL | – | >366 μM/mL | 11 μM/mL | 85.6 ± 26.1 | 3/1 | >3.94 | –
